Reference: ChEMBL document CHEMBL1146758, “Design, synthesis and structure-activity relationship studies of novel indazole analogues as DNA gyrase inhibitors with Gram-positive antibacterial activity” (Bioorg Med Chem Lett, 2004)
≈ marks a conversion by molar mass, not a printed value.

Experiments:
Staphylococcus aureus [1] = experiment: Inhibitory activity against Staphylococcus aureus FDA 209P; assay type: functional
Enterococcus faecalis [2] = experiment: Inhibitory activity against Enterococcus faecalis ATCC 29212; assay type: functional
DNA gyrase [3] = biological target: DNA gyrase (Escherichia coli, UniProt P0AES4+P0AES6); experiment: (§1) Inhibitory activity against Escherichia coli DNA gyrase; assay type: protein-complex assay
Enterococcus faecalis [4] = experiment: Inhibitory activity against Enterococcus faecalis KU 1777; assay type: functional
DNA topoisomerase II [5] = biological target: T1, DNA topoisomerase II (Homo sapiens, UniProt P11388+Q02880); experiment: Human DNA topoisomerase II relaxation activity was determined; assay type: protein assay
Staphylococcus aureus [6] = experiment: Inhibitory activity against Staphylococcus aureus KMP9; assay type: functional
Nucleic Acid [7] = experiment: Escherichia coli DNA topoisomerase IV decatenation activity was determined; assay type: nucleic-acid assay
Nucleic Acid [8] = experiment: Inhibitory activity against Escherichia coli DNA topoisomerase IV; assay type: nucleic-acid assay
DNA topoisomerase II [9] = biological target: T1, DNA topoisomerase II; experiment: Inhibitory activity against human DNA topoisomerase II; assay type: protein assay
DNA gyrase [10] = biological target: DNA gyrase (Escherichia coli, UniProt P0AES6+P0AES4); experiment: as §1; assay type: protein-complex assay
[11] = Staphylococcus aureus, read-out: MIC
[12] = Enterococcus faecalis, ATCC 29212, read-out: MIC
[13] = Enterococcus faecalis, read-out: MIC

Compound	MIC (Staphylococcus aureus [1]; [11]) [µg/mL]	MIC (Enterococcus faecalis [2]; [12]) [µg/mL]	IC50 (DNA gyrase [3]) [µM]	MIC (Enterococcus faecalis [4]; [13]) [µg/mL]	IC50 (DNA topoisomerase II [5]) [µg/mL]	MIC (Staphylococcus aureus [6]; [11]) [µg/mL]	IC50 (Nucleic Acid [7]) [µg/mL]	MIC (Staphylococcus aureus [1]) [µg/mL]	MIC (Enterococcus faecalis [2]) [µg/mL]	MIC (Enterococcus faecalis [4]) [µg/mL]	MIC (Staphylococcus aureus [6]) [µg/mL]	IC50 (Nucleic Acid [8]) [µg/mL]	IC50 (DNA topoisomerase II [9]) [µg/mL]	IC50 (DNA gyrase [10]) [nM]
COC(=O)C1CCCC(NCc2n[nH]c3cccc(OCc4ccc(Cl)c(Cl)c4)c23)C1 (configuration not stated)	4 (≈ 8.65 µM)	4 (≈ 8.65 µM)	2.16	4 (≈ 8.65 µM)	> 400	4 (≈ 8.65 µM)	> 128	–	–	–	–	–	–	–
CCOC(=O)CCCNc1[nH]nc2cccc(OCc3ccc(C(C)(C)C)cc3)c12	16 (≈ 39.1 µM)	16 (≈ 39.1 µM)	39.1	16 (≈ 39.1 µM)	–	16 (≈ 39.1 µM)	–	–	–	–	–	–	–	–
COC(=O)C1CN(Cc2n[nH]c3cccc(OCc4ccc(C(C)(C)C)cc4)c23)CCC1=O (configuration not stated)	> 128	> 128	8.9	> 128	–	> 128	–	–	–	–	–	–	–	–
COC(=O)C1CCCC(NCc2cc(/C=C\c3cn(C)c4ccc(Cl)cc34)[nH]n2)C1 (stereo in doubt; 8bb)	–	–	1.17	–	–	–	–	8 (≈ 18.7 µM)	64 (≈ 150 µM)	32 (≈ 75 µM)	16 (≈ 37.5 µM)	–	–	–
COC(=O)C1CCCN(Cc2n[nH]c3cccc(OCc4ccc(C(C)(C)C)cc4)c23)C1 (configuration not stated)	32 (≈ 73.5 µM)	64 (≈ 147 µM)	36.7	32 (≈ 73.5 µM)	–	64 (≈ 147 µM)	–	–	–	–	–	–	–	–
CC(C)(C)c1ccc(COc2cccc3[nH]nc(CN[C@H]4CN[C@H](CO)C4)c23)cc1	32 (≈ 78.3 µM)	64 (≈ 157 µM)	78.3	32 (≈ 78.3 µM)	–	64 (≈ 157 µM)	–	–	–	–	–	–	–	–
CO[C@@H]1[C@@H](OC(N)=O)[C@@H](O)[C@H](Oc2ccc3c(O)c(NC(=O)c4ccc(O)c(CC=C(C)C)c4)c(=O)oc3c2C)OC1(C)C [NOVOBIOCIN]	0.25 (≈ 0.408 µM)	2 (≈ 3.26 µM)	–	2 (≈ 3.26 µM)	–	0.25 (≈ 0.408 µM)	–	–	–	–	–	25 (≈ 40.8 µM)	> 400	–
Cc1cc(=O)oc2cc(CCc3n[nH]c4cccc(OCc5ccc(C(C)(C)C)cc5)c34)ccc12	> 128	> 128	0.536	> 128	–	> 128	–	–	–	–	–	> 128	> 400	–
COC(=O)C1CCCC(NCc2cc(/C=C\c3ccc(Cl)c(Cl)c3)[nH]n2)C1 (configuration not stated)	4 (≈ 9.8 µM)	16 (≈ 39.2 µM)	39.2	16 (≈ 39.2 µM)	–	8 (≈ 19.6 µM)	–	–	–	–	–	–	–	–
COC(=O)C1CCCC(NCc2cc(/C=C/c3cn(C)c4ccc(Cl)cc34)[nH]n2)C1 (stereo in doubt; 7ba)	–	–	–	–	–	–	–	8 (≈ 18.7 µM)	32 (≈ 75 µM)	–	8 (≈ 18.7 µM)	–	–	2340
COC(=O)C1CCCC(Nc2[nH]nc3cccc(OCc4ccc(C(C)(C)C)cc4)c23)C1 (configuration not stated)	4 (≈ 9.18 µM)	8 (≈ 18.4 µM)	9.18	4 (≈ 9.18 µM)	–	4 (≈ 9.18 µM)	–	–	–	–	–	–	–	–
CC(C)(C)c1ccc(COc2cccc3[nH]nc(CN[C@@H]4CN[C@H](CO)C4)c23)cc1	64 (≈ 157 µM)	64 (≈ 157 µM)	157	64 (≈ 157 µM)	–	64 (≈ 157 µM)	–	–	–	–	–	–	–	–
COC(=O)C1CCCC(NCc2cc(/C=C/c3ccc(Cl)c(Cl)c3)[nH]n2)C1 (configuration not stated)	4 (≈ 9.8 µM)	16 (≈ 39.2 µM)	39.2	16 (≈ 39.2 µM)	–	8 (≈ 19.6 µM)	–	–	–	–	–	–	–	–
COC(=O)C1CCCC(NCc2cc(/C=C/c3cn(C)c4ccc(Cl)cc34)[nH]n2)C1 (stereo in doubt; 7bb)	16 (≈ 37.5 µM)	64 (≈ 150 µM)	2.34	32 (≈ 75 µM)	–	16 (≈ 37.5 µM)	–	–	–	–	–	–	–	–
COC(=O)C1CCN(Cc2n[nH]c3cccc(OCc4ccc(C(C)(C)C)cc4)c23)CC1	32 (≈ 73.5 µM)	32 (≈ 73.5 µM)	36.7	32 (≈ 73.5 µM)	–	32 (≈ 73.5 µM)	–	–	–	–	–	–	–	–
COC(=O)C1CCCC(Nc2[nH]nc3cccc(OCc4ccc(F)c(F)c4)c23)C1 (configuration not stated)	128 (≈ 308 µM)	128 (≈ 308 µM)	38.5	128 (≈ 308 µM)	–	128 (≈ 308 µM)	–	–	–	–	–	–	–	–

Compound	MIC (Staphylococcus aureus [1]; [11]) [µg/mL]	MIC (Enterococcus faecalis [2]; [12]) [µg/mL]	IC50 (DNA gyrase [3]) [µM]	MIC (Enterococcus faecalis [4]; [13]) [µg/mL]	IC50 (DNA topoisomerase II [5]) [µg/mL]	MIC (Staphylococcus aureus [6]; [11]) [µg/mL]	IC50 (Nucleic Acid [7]) [µg/mL]	MIC (Staphylococcus aureus [1]) [µg/mL]	MIC (Enterococcus faecalis [2]) [µg/mL]	MIC (Enterococcus faecalis [4]) [µg/mL]	MIC (Staphylococcus aureus [6]) [µg/mL]	IC50 (Nucleic Acid [8]) [µg/mL]	IC50 (DNA topoisomerase II [9]) [µg/mL]	IC50 (DNA gyrase [10]) [nM]
COC(=O)[C@@H]1C[C@@H](NCc2n[nH]c3cccc(OCc4ccc(C(C)(C)C)cc4)c23)CN1	64 (≈ 147 µM)	128 (≈ 293 µM)	18.3	64 (≈ 147 µM)	–	128 (≈ 293 µM)	–	–	–	–	–	–	–	–
Cn1cc(/C=C/c2cc(C3CCNCC3)nn2-c2cccc(Cl)c2)c2cc(Cl)ccc21	1 (≈ 2.22 µM)	2 (≈ 4.43 µM)	31	2 (≈ 4.43 µM)	> 400	1 (≈ 2.22 µM)	8 (≈ 17.7 µM)	–	–	–	–	–	–	–
CC(C)(C)c1ccc(COc2cccc3[nH]nc(CN4CCNCC4)c23)cc1	16 (≈ 42.3 µM)	32 (≈ 84.5 µM)	169	16 (≈ 42.3 µM)	–	32 (≈ 84.5 µM)	–	–	–	–	–	–	–	–
CC(C)(C)c1ccc(COc2cccc3[nH]nc(NCCCC(=O)O)c23)cc1	> 128	> 128	83.9	> 128	–	> 128	–	–	–	–	–	–	–	–
Clc1cccc(-n2nc(C3CCNCC3)cc2/C=C/c2c[nH]c3ccc(Cl)cc23)c1	1 (≈ 2.29 µM)	2 (≈ 4.57 µM)	32	2 (≈ 4.57 µM)	> 400	1 (≈ 2.29 µM)	8 (≈ 18.3 µM)	–	–	–	–	–	–	–
COC(=O)C1CCCC(Nc2[nH]nc3cccc(OCc4ccc(Cl)c(Cl)c4)c23)C1 (configuration not stated)	4 (≈ 8.92 µM)	4 (≈ 8.92 µM)	2.23	4 (≈ 8.92 µM)	–	4 (≈ 8.92 µM)	–	–	–	–	–	–	–	–
COC(=O)[C@@H]1C[C@H](NCc2n[nH]c3cccc(OCc4ccc(C(C)(C)C)cc4)c23)CN1	64 (≈ 147 µM)	64 (≈ 147 µM)	18.3	64 (≈ 147 µM)	–	64 (≈ 147 µM)	–	–	–	–	–	–	–	–
COC(=O)C1CCCC(NCc2cc(/C=C\c3cn(C)c4ccc(Cl)cc34)[nH]n2)C1 (stereo in doubt; 8ba)	4 (≈ 9.37 µM)	–	2.34	–	–	8 (≈ 18.7 µM)	–	–	8 (≈ 18.7 µM)	8 (≈ 18.7 µM)	–	–	–	–
COC(=O)C1CCCC(NCc2n[nH]c3cccc(OCc4ccc(C(C)(C)C)cc4)c23)C1 (configuration not stated)	4 (≈ 8.9 µM)	8 (≈ 17.8 µM)	8.9	4 (≈ 8.9 µM)	> 400	4 (≈ 8.9 µM)	> 128	–	–	–	–	–	–	–
c1ccc(COc2ccc(-c3cc(C4CCNCC4)[nH]n3)cc2)cc1	64 (≈ 192 µM)	64 (≈ 192 µM)	384	64 (≈ 192 µM)	–	64 (≈ 192 µM)	–	–	–	–	–	128 (≈ 384 µM)	200 (≈ 600 µM)	–
COC(=O)C1CCCC(Nc2[nH]nc3cccc(OCc4ccc(Cl)cc4)c23)C1 (configuration not stated)	32 (≈ 77.3 µM)	64 (≈ 155 µM)	38.7	32 (≈ 77.3 µM)	–	32 (≈ 77.3 µM)	–	–	–	–	–	–	–	–
CCOC(=O)C1CCCN(Cc2n[nH]c3cccc(OCc4ccc(C(C)(C)C)cc4)c23)C1 (configuration not stated)	16 (≈ 35.6 µM)	16 (≈ 35.6 µM)	17.8	16 (≈ 35.6 µM)	–	32 (≈ 71.2 µM)	–	–	–	–	–	–	–	–
COC(=O)C1CCCC(Nc2[nH]nc3cccc(OCc4cnc(Cl)c(Cl)c4)c23)C1 (configuration not stated)	> 128	> 128	142	> 128	–	> 128	–	–	–	–	–	–	–	–
COC(=O)C1CCCC(Nc2[nH]nc3cccc(OCc4ccccc4)c23)C1 (configuration not stated)	64 (≈ 169 µM)	64 (≈ 169 µM)	21.1	64 (≈ 169 µM)	–	64 (≈ 169 µM)	–	–	–	–	–	–	–	–
CNCc1n[nH]c2cccc(OCc3ccc(C(C)(C)C)cc3)c12	32 (≈ 98.9 µM)	32 (≈ 98.9 µM)	198	16 (≈ 49.5 µM)	–	64 (≈ 198 µM)	–	–	–	–	–	–	–	–
